The values below come from patent US11987588B2, “Modulators of the beta-3 adrenergic receptor useful for the treatment or prevention of heart failure and disorders related thereto” (Arena Pharmaceuticals, Inc., priority 2017, dated 2024).

For the assay, the target named is Beta-3 Adrenergic Receptor (Homo sapiens (Human), UniProt P13945). The assay is described as follows: Homogeneous Time-Resolved Fluorescence (HTRF) cAMP antagonist assay, IC50 determination. Type of assay: cell-based. The conditions noted are these: CHO-K1 cells stably expressing recombinant receptor, isoproterenol at EC90. In a few lines: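 CHO-K1 cells stably expressing receptor, 1500 cells/well, preincubated briefly with 10-point 5-fold compound series (top final typically 10 or 100 μM) in PBS with 1 mM IBMX, then challenged with isoproterenol at EC90 for 1 h at room temperature. cAMP read by HTRF against on-plate standard curve; IC50 from dose-response.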
Beta-3 Adrenergic Receptor, sequence (P13945 whole entry, species assumed): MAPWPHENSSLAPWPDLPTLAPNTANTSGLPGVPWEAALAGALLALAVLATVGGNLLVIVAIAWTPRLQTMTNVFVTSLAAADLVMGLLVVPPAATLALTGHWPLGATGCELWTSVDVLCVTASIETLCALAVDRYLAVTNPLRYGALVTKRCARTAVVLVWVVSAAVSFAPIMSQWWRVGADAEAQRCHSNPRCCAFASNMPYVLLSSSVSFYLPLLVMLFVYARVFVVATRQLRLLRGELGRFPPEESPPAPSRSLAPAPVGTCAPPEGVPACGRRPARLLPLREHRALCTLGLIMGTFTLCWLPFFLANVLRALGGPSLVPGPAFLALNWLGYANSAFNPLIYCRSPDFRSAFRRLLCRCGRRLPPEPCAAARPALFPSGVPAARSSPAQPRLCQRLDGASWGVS
In the case of `CNS(=O)(=O)c1cccc(OC[C@@H](O)CN[C@@H]2COC3(CCN(S(=O)(=O)c4ccc5c(c4)N(C)CCO5)CC3)C2)c1` [Compound 299, 3-((S)-2-hydroxy-3-((S)-8-(4-methyl-3,4-dihydro-2H-benzo[b][1,4]oxazin-6-ylsulfonyl)-1-oxa-8-azaspiro[4.5]decan-3-ylamino)propoxy)-N-methylbenzenesulfonamide], the IC50 was determined as 11.8 nM.

Regarding `CNS(=O)(=O)c1cccc(OC[C@@H](O)CNC2COC3(CCN(S(=O)(=O)c4cc(C)cc(-c5ccc(CN)cc5)c4)CC3)C2)c1` (stereo partly drawn) [Compound 373, 3-((2S)-3-(8-(4′-(aminomethyl)-5-methylbiphenyl-3-ylsulfonyl)-1-oxa-8-azaspiro[4.5]decan-3-ylamino)-2-hydroxypropoxy)-N-methylbenzenesulfonamide], the 50% inhibitory concentration (IC50) came out at 24.4 nM.

In the case of `CNS(=O)(=O)c1cccc(OC[C@@H](O)CN[C@H]2COC3(CCN(S(=O)(=O)c4cccc(Cl)c4)CC3)C2)c1` [Compound 592, 3-((S)-3-((R)-8-(3-chlorophenylsulfonyl)-1-oxa-8-azaspiro[4.5]decan-3-ylamino)-2-hydroxypropoxy)-N-methylbenzenesulfonamide], the 50% inhibitory concentration (IC50) stood at 21 nM.

Turning to `Cc1c(S(=O)(=O)N2CCC3(CC2)CC(NC[C@H](O)COc2cccc(S(=O)(=O)NCCCN(C)C)c2)CO3)cnn1-c1ccccc1` (stereo partly drawn) [Compound 313, N-(3-(dimethylamino)propyl)-3-((2S)-2-hydroxy-3-(8-(5-methyl-1-phenyl-1H-pyrazol-4-ylsulfonyl)-1-oxa-8-azaspiro[4.5]decan-3-ylamino)propoxy)benzenesulfonamide], the half-maximal inhibitory concentration (IC50) turned out to be 4010 nM.

With `CNS(=O)(=O)c1cccc(OC[C@@H](O)CNC2COC3(CCN(S(=O)(=O)c4ccc5c(c4)N(C)CCO5)CC3)C2)c1` (stereo partly drawn) [Compound 189, 3-((2S)-2-hydroxy-3-(8-(4-methyl-3,4-dihydro-2H-benzo[b][1,4]oxazin-6-ylsulfonyl)-1-oxa-8-azaspiro[4.5]decan-3-ylamino)propoxy)-N-methylbenzenesulfonamide], the IC50 amounted to 8.51 nM.

Consider `CNS(=O)(=O)c1cccc(OC[C@@H](O)CNC2COC3(CCN(S(=O)(=O)c4cccc(-c5ccc(CN[C@@H](CO)C(N)=O)cc5)c4)CC3)C2)c1` (stereo partly drawn) [Compound 345, (2S)-3-hydroxy-2-((3′-(3-((S)-2-hydroxy-3-(3-(N-methylsulfamoyl)phenoxy)propylamino)-1-oxa-8-azaspiro[4.5]decan-8-ylsulfonyl)biphenyl-4-yl)methylamino)propanamide], for which the IC50 amounted to 107 nM.

Take `CNS(=O)(=O)c1cccc(OC[C@@H](O)CN[C@H]2COC3(CCN(S(=O)(=O)c4cnc5c(c4)CNCC5)CC3)C2)c1` [Compound 484, 3-((S)-2-hydroxy-3-((R)-8-(5,6,7,8-tetrahydro-1,6-naphthyridin-3-ylsulfonyl)-1-oxa-8-azaspiro[4.5]decan-3-ylamino)propoxy)-N-methylbenzenesulfonamide]: the concentration for half-maximal inhibition (IC50) stood at 278 nM.

Turning to `CNS(=O)(=O)c1cccc(OC[C@@H](O)CNC2COC3(CCN(S(=O)(=O)c4ccc5cc(OC)ccc5c4)CC3)C2)c1` (stereo partly drawn) [Compound 169, 3-((2S)-2-hydroxy-3-(8-(6-methoxynaphthalen-2-ylsulfonyl)-1-oxa-8-azaspiro[4.5]decan-3-ylamino)propoxy)-N-methylbenzenesulfonamide], the IC50 was found to be 11.6 nM.

As for `CNS(=O)(=O)c1cccc(OC[C@@H](O)CNC2COC3(CCN(S(=O)(=O)c4ccc(-c5ccc(F)cc5)cc4)CC3)C2)c1` (stereo partly drawn) [Compound 122, 3-((2S)-3-(8-(4′-fluorobiphenyl-4-ylsulfonyl)-1-oxa-8-azaspiro[4.5]decan-3-ylamino)-2-hydroxypropoxy)-N-methylbenzenesulfonamide], the IC50 was found to be 34.1 nM.

As to `O=S(=O)(NC[C@H](O)CO)c1cccc(OC[C@@H](O)CNC2COC3(CCN(S(=O)(=O)c4ccc5ccccc5c4)CC3)C2)c1` (stereo partly drawn) [Compound 166, N—((S)-2,3-dihydroxypropyl)-3-((2S)-2-hydroxy-3-(8-(naphthalen-2-ylsulfonyl)-1-oxa-8-azaspiro[4.5]decan-3-ylamino)propoxy)benzenesulfonamide], the IC50 is 143 nM.

For the compound `CNS(=O)(=O)c1cccc(OC[C@@H](O)CN[C@H]2COC3(CCN(S(=O)(=O)c4cnc5c(c4)CCC5)CC3)C2)c1` [Compound 491, 3-((S)-3-((R)-8-(6,7-dihydro-5H-cyclopenta[b]pyridin-3-ylsulfonyl)-1-oxa-8-azaspiro[4.5]decan-3-ylamino)-2-hydroxypropoxy)-N-methylbenzenesulfonamide], the IC50 amounted to 24.4 nM.

With `CNS(=O)(=O)c1cccc(OC[C@@H](O)CNC2COC3(CCN(S(=O)(=O)c4ccoc4)CC3)C2)c1` (stereo partly drawn) [Compound 192, 3-((2S)-3-(8-(furan-3-ylsulfonyl)-1-oxa-8-azaspiro[4.5]decan-3-ylamino)-2-hydroxypropoxy)-N-methylbenzenesulfonamide], the IC50 came out at 28.3 nM.

As to `CNS(=O)(=O)c1cccc(OC[C@@H](O)CNC2COC3(CCN(S(=O)(=O)c4cc(Cl)cc(Cl)c4)CC3)C2)c1` (stereo partly drawn) [Compound 138, 3-((2S)-3-(8-(3,5-dichlorophenylsulfonyl)-1-oxa-8-azaspiro[4.5]decan-3-ylamino)-2-hydroxypropoxy)-N-methylbenzenesulfonamide], the IC50 turned out to be 14.2 nM.

As for `CNS(=O)(=O)c1cccc(OC[C@@H](O)CN[C@@H]2COC3(CCN(S(=O)(=O)c4cccc(-c5ccc(CN)cc5)c4C)CC3)C2)c1` [Compound 447, 3-((S)-3-((S)-8-(4′-(aminomethyl)-2-methylbiphenyl-3-ylsulfonyl)-1-oxa-8-azaspiro[4.5]decan-3-ylamino)-2-hydroxypropoxy)-N-methylbenzenesulfonamide], the IC50 turned out to be 19.9 nM.

As for `CNS(=O)(=O)c1cccc(OC[C@@H](O)CNC2COC3(CCN(S(=O)(=O)c4ccc(F)cc4F)CC3)C2)c1` (stereo partly drawn) [Compound 134, 3-((2S)-3-(8-(2,4-difluorophenylsulfonyl)-1-oxa-8-azaspiro[4.5]decan-3-ylamino)-2-hydroxypropoxy)-N-methylbenzenesulfonamide], the IC50 was 37.9 nM.

Consider `CNS(=O)(=O)c1cccc(OC[C@@H](O)CN[C@H]2COC3(CCN(S(=O)(=O)c4ccc5ccccc5c4)CC3)C2)c1` [Compound 30, 3—((S)-2-hydroxy-3-((R)-8-(naphthalen-2-ylsulfonyl)-1-oxa-8-azaspiro[4.5]decan-3-ylamino)propoxy)-N-methylbenzenesulfonamide], for which the IC50 was determined as 4.41 nM.

With `CNS(=O)(=O)c1cccc(OC[C@@H](O)CN[C@H]2COC3(CCN(S(=O)(=O)c4cc5c(nc4N(C)C)OCCN5C)CC3)C2)c1` [Compound 453, 3-((S)-3-((R)-8-(6-(dimethylamino)-1-methyl-2,3-dihydro-1H-pyrido[2,3-b][1,4]oxazin-7-ylsulfonyl)-1-oxa-8-azaspiro[4.5]decan-3-ylamino)-2-hydroxypropoxy)-N-methylbenzenesulfonamide], the IC50 was determined as 115 nM.

Regarding `CN(C)S(=O)(=O)c1cccc(OC[C@@H](O)CNC2COC3(CCN(S(=O)(=O)c4cccc(-c5ccc(CN)cc5)c4)CC3)C2)c1` (stereo partly drawn) [Compound 273, 3-((2S)-3-(8-(4′-(aminomethyl)biphenyl-3-ylsulfonyl)-1-oxa-8-azaspiro[4.5]decan-3-ylamino)-2-hydroxypropoxy)-N,N-dimethylbenzenesulfonamide], the IC50 was 15.5 nM.

Turning to `CNS(=O)(=O)c1cccc(OC[C@@H](O)CNC2COC3(CCN(S(=O)(=O)c4cccc(Oc5ccc(C(F)(F)F)cc5)c4)CC3)C2)c1` (stereo partly drawn) [Compound 161, 3-((2S)-2-hydroxy-3-(8-(3-(4-(trifluoromethyl)phenoxy)phenylsulfonyl)-1-oxa-8-azaspiro[4.5]decan-3-ylamino)propoxy)-N-methylbenzenesulfonamide], the IC50 was determined as 83.7 nM.

In the case of `CNS(=O)(=O)c1cccc(OC[C@@H](O)CNC2COC3(CCN(S(=O)(=O)c4ccc(-c5cc(C(F)(F)F)nn5C)s4)CC3)C2)c1` (stereo partly drawn) [Compound 191, 3-((2S)-2-hydroxy-3-(8-(5-(1-methyl-3-(trifluoromethyl)-1H-pyrazol-5-yl)thiophen-2-ylsulfonyl)-1-oxa-8-azaspiro[4.5]decan-3-ylamino)propoxy)-N-methylbenzenesulfonamide], the concentration for half-maximal inhibition (IC50) amounted to 80.9 nM.

In the case of `CNS(=O)(=O)c1cccc(OC[C@@H](O)CNC2COC3(CCN(S(=O)(=O)c4cccc(-c5ccc(OCC#N)cc5)c4)CC3)C2)c1` (stereo partly drawn) [Compound 114, 3-((2S)-3-(8-(4′-(cyanomethoxy)biphenyl-3-ylsulfonyl)-1-oxa-8-azaspiro[4.5]decan-3-ylamino)-2-hydroxypropoxy)-N-methylbenzenesulfonamide], the IC50 was found to be 10.3 nM.

For `CCOc1ccc(-c2ccc(CN)cc2)cc1S(=O)(=O)N1CCC2(CC1)C[C@@H](NC[C@H](O)COc1cccc(S(=O)(=O)NC)c1)CO2` [Compound 420, 3-((S)-3-((R)-8-(4′-(aminomethyl)-4-ethoxybiphenyl-3-ylsulfonyl)-1-oxa-8-azaspiro[4.5]decan-3-ylamino)-2-hydroxypropoxy)-N-methylbenzenesulfonamide], the IC50 was 10.2 nM.

For `CNS(=O)(=O)c1cccc(OC[C@@H](O)CN[C@H]2COC3(CCN(S(=O)(=O)c4cccc(-c5cc[nH]n5)c4)CC3)C2)c1` [Compound 296, 3-((S)-3-((R)-8-(3-(1H-pyrazol-3-yl)phenylsulfonyl)-1-oxa-8-azaspiro[4.5]decan-3-ylamino)-2-hydroxypropoxy)-N-methylbenzenesulfonamide], the IC50 was determined as 17.5 nM.

As for `CNS(=O)(=O)c1cccc(OC[C@@H](O)CN[C@@H]2COC3(CCN(S(=O)(=O)c4cccc(-c5ccc(CC#N)cc5)c4)CC3)C2)c1` [Compound 293, 3-((S)-3-((S)-8-(4′-(cyanomethyl)biphenyl-3-ylsulfonyl)-1-oxa-8-azaspiro[4.5]decan-3-ylamino)-2-hydroxypropoxy)-N-methylbenzenesulfonamide], the IC50 was found to be 16.2 nM.
